Experimental data taken from US20160015064A1, “COMPOUNDS, COMPOSITIONS, AND METHODS FOR MODULATING SWEET TASTE” (CHROMOCELL CORPORATION, priority 2013, published 2016).

How the values were obtained:
[1] = test system: perception of the sweet taste of an aqueous solution of sweetener; test: Ranking sip and spit test of sweetness perception (R index); type: in vivo, humans; conditions: vs negative control
Procedure: The effect of the test compounds on the perception of the sweet taste of an aqueous solution of sweetener in humans was evaluated using a ranking “sip and spit” method.
The aqueous sweetener solutions were prepared by adding, fructose, sucrose or glucose (by weight), to water to achieve the desired concentration.
Compounds were first prepared as a 500-fold concentrated stock solution in 100% ethanol. These concentrated stocks were then added to the aqueous sweetener solutions to result in a final ethanol concentration of 0.2%. The control (positive and negative) samples were also normalized to 0.2% ethanol.
In the ranking test used for compound evaluation, taste panelists (n=15), rank samples in increasing order of sweetness. One set, comprising of 6 samples, was presented to each panelists at a given time and are asked to rank them in order of increasing sweetness.
Panelists were instructed not to eat or drink (except water) for at least 1 h before the test. During the test, panelists were instructed to sip each sample, swirl it around their mouth and then expectorate. After tasting each set, panelists were instructed to rank the 6 samples within the set from least sweet to most sweet. Where rank 1—is lowest in sweetness and rank 6—is highest in sweetness. Panelists cleansed their palates by rinsing with water, eating a cracker and waiting for an interval of 10 minutes. All samples were tasted at ambient temperatures. Each sample was tasted twice.
R index analysis was utilized to determine the degree of difference between a test and control sample. It indicates the level of discrimination between two samples. […] A positive control sample was used to assess the ability of the panelists to accurately discriminate sweetness perception differences from the negative control.

[2] = test system: perception of the sweet taste in an aqueous environment; test: Trained descriptive analysis (DA) panel, sweet attribute; type: in vivo, humans; conditions: for DA Panel Average Sweetness Intensity Score (on 15 cm scale) / Fold enhancement of sweetness perception as compared to control sweetener solution / Perceived inherent sweetness compared to solubilizing agent alone / Perceived sweetness compared to solubilizing agent alone (inherent sweetness): 35 ppm compound plus solubilizing agent; for Perceived inherent sweetness compared to solubilizing agent alone: citric acid-citrate solution pH 3; for Compound effects beyond the additive effect of inherent sweetness: 4% fructose and 8% sucrose; for Compound effects beyond the additive effect of inherent sweetness / Perceived sweetness vs control sweetener solutions (FIG. 2) / Perceived sweetness vs control sweetener solutions (FIG. 1): 35 ppm; for Perceived sweetness vs control sweetener solutions (FIG. 2) / Perceived sweetness vs control sweetener solutions (FIG. 1): fructose and sucrose, ** p<0.01; for Perceived sweetness compared to solubilizing agent alone (inherent sweetness): water pH 7
Procedure: The effect of the test compounds on the perception of the sweet taste in an aqueous environment, in the absence or presence of carbohydrate sweeteners, was evaluated using a descriptive analysis methodology with a group of trained panelists, as follows.
Candidate panelists were recruited, with prescreening and personal interviews, and were assessed for their ability to detect, recognize and differentiate basic taste attributes or mixtures thereof as part of a standardized acuity test. These candidate panelists were also assessed for their innate ability to identify flavors, and to rank on intensity scales. Other senses such as smell and vision were also included as part of the assessment. Candidates also were screened for their ability to use the language to describe and articulate ideas.
Selected candidates proceeded to training as a group in three phases: (1) Lexicon development, (2) Concept alignment, and (3) Scaling descriptors. During lexicon development, panelists evaluated products appropriate for use in the study to generate and align on terms describing the flavor, taste, aromatic, trigeminal, and temporal attributes. During concept alignment, the panel evaluated the products mentioned above to clarify and confirm the attributes that were generated during lexicon development using reference standards that appropriately define each attribute; these are either physical references (e.g. sucrose solutions) or verbal descriptions (e.g. overall flavor). Product terms and concepts were validated during this portion of the study.
In the last phase, scaling descriptors, the panel participated in a series of exercises focused on ordering and ranking samples according to relative attribute intensity, measuring attribute intensity using a defined length of line scale. Whenever possible, different levels or concentration of references were used as anchors to facilitate use of the scale. Panelists were provided with blinded references at this stage to evaluate their understanding and perception of the scale.
The panel used in this example was trained to reference sweet attributes in an absolute manner, such that a particular concentration of sweetener is always measured by the panelists at the same point using a 15 cm line scale where each cm represents a 1% increase in sucrose to cover the range of 0% to 15% sucrose. For the rest of the attributes, the panel was trained using a hybrid approach between descriptive analysis methods (e.g. quantitative descriptive analysis, the sensory spectrum, etc.) well-known to those skilled in the art.
The trained panel was then used for a descriptive analysis assessment for Compounds 1, 2 and 3 in aqueous solutions at pH 3 and pH 7. Each of the three compounds was tested at 35 ppm in sucrose and fructose sweeteners. In addition, Compounds 1, 2 and 3 were also examined in water at pH 3 and pH 7 to assess for any inherent sweetness.
The aqueous sweetener solutions were prepared by adding, fructose or sucrose (by weight), to water to achieve the desired concentration. Aqueous sucrose solutions at pH 3 were buffered using a final concentration of 0.096% Citric Acid plus 0.036% Sodium Citrate while aqueous fructose solutions at pH 3 were buffered using a final concentration of 0.06% Citric Acid and 0.0225% Sodium Citrate.
Compounds were first prepared as a […] concentrated stock solution in 100% ethanol. These concentrated stocks were then added to the aqueous sweetener solutions to result in a final ethanol concentration of 0.2%. In addition to compounds, a solubilizing agent at a final concentration of 0.02% was added to the aqueous sweetener solutions. Control samples were also balanced with 0.2% ethanol and in certain cases 0.02% solubilizing agent.
Both control (aqueous sweetener solutions without compound) and variant (aqueous sweetener solutions with compound) samples were blinded and randomized (by sweetener and pH blocks). […]

[3] = citric acid-citrate solution pH 3, no sweetener
[4] = water pH 7, no sweetener, 1 cm = 1% sucrose

Row | Compound | R Index Score ([1]; 4% fructose test sample, compound 10 ppm) | R Index Score ([1]; 5% sucrose test sample, compound 10 ppm, significant at R index ≧60) | DA Panel Average Sweetness Intensity Score (on 15 cm scale) ([2]; 4% fructose, pH 3) | Fold enhancement of sweetness perception as compared to control sweetener solution ([2]; 4% fructose, pH 3) | DA Panel Average Sweetness Intensity Score (on 15 cm scale) ([2]; 4% fructose, pH 7) | Fold enhancement of sweetness perception as compared to control sweetener solution ([2]; 4% fructose, pH 7) | DA Panel Average Sweetness Intensity Score (on 15 cm scale) ([2]; 8% sucrose, pH 3) | Fold enhancement of sweetness perception as compared to control sweetener solution ([2]; 8% sucrose, pH 3) | DA Panel Average Sweetness Intensity Score (on 15 cm scale) ([2]; 8% sucrose, pH 7) | Fold enhancement of sweetness perception as compared to control sweetener solution ([2]; 8% sucrose, pH 7) | DA Panel Average Sweetness Intensity Score (on 15 cm scale) [2, 3] | Perceived inherent sweetness compared to solubilizing agent alone [2] | Compound effects beyond the additive effect of inherent sweetness ([2]; pH 3) | Perceived sweetness vs control sweetener solutions (FIG. 2) ([2]; pH 3) | Compound effects beyond the additive effect of inherent sweetness ([2]; pH 7) | Perceived sweetness vs control sweetener solutions (FIG. 1) ([2]; pH 7) | DA Panel Average Sweetness Intensity Score (on 15 cm scale) [2, 4] | Perceived sweetness compared to solubilizing agent alone (inherent sweetness) [2] | R Index Score ([1]; 5% sucrose test sample, compound 2.5 ppm)
1 | COc1ccc(C2CC(=O)c3c(O)cccc3O2)cc1O (single isomer, unassigned) [Compound 2, 5-hydroxy-2-(3-hydroxy-4-methoxyphenyl)chroman-4-one] | 81 | 90 | 6.93 | 1.38X | 7.08 | 1.62X | 9.21 | 1.28X | 10.15 | 1.35X | 1.27 | do not show further significant increase in perceived inherent sweetness | super-additive effects | significant increase in perceived sweetness | super-additive effects | significant increase in perceived sweetness | 1.76 | further increase in perceived sweetness | 
2 | COc1ccc(C2CC(=O)c3c(O)cccc3O2)cc1O (single isomer, unassigned) [Compound 3, 5-hydroxy-2-(3-hydroxy-4-methoxyphenyl)chroman-4-one] |  |  | 7.09 | 1.41X | 7.08 | 1.62X | 9.23 | 1.28X | 10.22 | 1.36X | 1.58 | do not show further significant increase in perceived inherent sweetness | super-additive effects | significant increase in perceived sweetness | super-additive effects | significant increase in perceived sweetness | 1.58 | further increase in perceived sweetness | 78
